Laboratory results reported in patent US20260347373A1, “HETEROCYCLIC COMPOUNDS, COMPOSITIONS THEREOF, AND METHODS OF TREATMENT THEREWITH” (BeOne Medicines I GmbH, priority 2023, published 2026).
Where a name gives a salt, the structure may show the parent alone. Read-outs that look alike come from different tables or passages of the source.

Experiments:
[1] = target: WT KRAS (Homo sapiens, UniProt P01116); test: KRAS WT Probe Displacement Assay (TR-FRET, GDP-loaded); format: binding
Source text: (§1) The synthetic routes of probe 1 and 2, which have been disclosed in PCT/CN2022/070676, are hereby incorporated herein.

[2] = target: KRAS G12D (Homo sapiens, UniProt P01116, G12D); test: KRAS G12D Probe Displacement Assay (TR-FRET, GDP-loaded); format: binding
KRAS G12D, sequence (P01116 1-188 isoform P01116-2 G12D): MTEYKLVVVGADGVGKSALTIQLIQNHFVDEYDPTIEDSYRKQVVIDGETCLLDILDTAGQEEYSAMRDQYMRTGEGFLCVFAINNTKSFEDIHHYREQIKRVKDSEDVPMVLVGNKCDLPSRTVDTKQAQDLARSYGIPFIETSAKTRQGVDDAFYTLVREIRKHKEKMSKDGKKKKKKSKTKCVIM
Source text: as §1

[3] = KRAS WT, read-out: KRAS^WT Probe Displacement Assay IC50
[4] = KRAS G12D, read-out: KRAS^G12D Probe Displacement Assay IC50
[5] = KRAS^WT Probe Displacement Assay IC50, KRAS WT
[6] = KRAS^G12D Probe Displacement Assay IC50, KRAS G12D

WT KRAS, sequence (P01116 1-188 isoform P01116-2): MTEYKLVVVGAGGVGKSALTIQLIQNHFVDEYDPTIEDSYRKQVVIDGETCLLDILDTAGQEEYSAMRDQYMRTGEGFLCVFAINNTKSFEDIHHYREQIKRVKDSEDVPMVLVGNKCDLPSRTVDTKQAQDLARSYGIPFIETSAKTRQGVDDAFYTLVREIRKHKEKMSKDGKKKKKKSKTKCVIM

Row | SMILES | IC50 [1, 3] [nM] | IC50 [2, 4] [nM] | IC50 [1, 5] [nM] | IC50 [2, 6] [nM]
1 | CO[C@@H]1CN2C[C@H](F)C[C@]2(COc2nc3c4c(nc(-c5cc(N)cc(C)c5C(F)(F)F)c(F)c4n2)OCC[C@@H]2[C@@H]4CC[C@H](CN32)N4)C1 [Example 216, 3-((6aR,7S,10R)-1-fluoro-13-(((2R,6S,7aS)-2-fluoro-6-methoxytetrahydro-1H-pyrrolizin-7a(5H)-yl)methoxy)-5,6,6a,7,8,9,10,11-octahydro-4-oxa-3,11a,12,14,15-pentaaza-7,10-methanocyclohepta[4,5]cycloocta[1,2,3-de]naphthalen-2-yl)-5-methyl-4-(trifluoromethyl)aniline] | 3 to 1000 | < 0.3 | – | –
2 | Cc1nc(N)cc(-c2nc3c4c(nc(OCC5(CN6CCC(=CF)CC6)CC5)nc4c2F)N2C[C@H]4CC[C@H](N4)[C@H]2CCO3)c1C(F)(F)F [Example 155, 4-((6aR,7S,10R)-1-fluoro-13-((1-((4-(fluoromethylene)piperidin-1-yl)methyl)cyclopropyl)methoxy)-5,6,6a,7,8,9,10,11-octahydro-4-oxa-3,11a,12,14,15-pentaaza-7,10-methanocyclohepta[4,5]cycloocta [1,2,3-de]naphthalen-2-yl)-6-methyl-5-(trifluoromethyl)pyridin-2-amine] | 3 to 1000 | < 0.3 | – | –
3 | Cc1cc(N)cc(-c2nc3c4c(nc(OCC5(CN6CCC(F)(F)C6)CC5)nc4c2F)N2C[C@H]4CC[C@H](N4)[C@H]2CCO3)c1C(F)(F)F [Example 89, 3-((6aR,7S,10R)-13-((1-((3,3-difluoropyrrolidin-1-yl)methyl)cyclopropyl)methoxy)-1-fluoro-5,6,6a,7,8,9,10,11-octahydro-4-oxa-3,11a,12,14,15-pentaaza-7,10-methanocyclohepta [4,5]cycloocta [1,2,3-de]naphthalen-2-yl)-5-methyl-4-(trifluoromethyl) aniline] | – | – | 3 to 1000 | < 0.3
4 | [2H]C([2H])([2H])N1CCC[C@H]1[C@H](C)Oc1nc2c3c(nc(-c4cc(N)cc(C)c4C(F)(F)F)c(F)c3n1)OCC[C@@H]1[C@@H]3CC[C@H](CN21)N3 [Example 141, 3-((6aR,7S,10R)-1-fluoro-13-((S)-1-((S)-1-(methyl-d3)pyrrolidin-2-yl)ethoxy)-5,6,6a,7,8,9,10,11-octahydro-4-oxa-3,11a,12,14,15-pentaaza-7,10-methano-cyclohepta[4,5]cycloocta [1,2,3-de]naphthalen-2-yl)-5-methyl-4-(trifluoromethyl)aniline] | 3 to 1000 | < 0.3 | – | –
5 | C=CCN1CCC[C@H]1[C@H](C)Oc1nc2c3c(nc(-c4cc(N)cc(C)c4C(F)(F)F)c(F)c3n1)OCC[C@@H]1[C@@H]3CC[C@H](CN21)N3 [Example 231, 3-((6aR,7S,10R)-13-((S)-1-((S)-1-allylpyrrolidin-2-yl)ethoxy)-1-fluoro-5,6,6a,7,8,9,10,11-octahydro-4-oxa-3,11a,12,14,15-pentaaza-7,10-methanocyclohepta[4,5]cycloocta[1,2,3-de]naphthalen-2-yl)-5-methyl-4-(trifluoromethyl)aniline] | 3 to 1000 | < 0.3 | – | –
6 | Cc1cc(N)cc(-c2nc3c4c(nc(O[C@@H](C)[C@@H]5CCCN5C)nc4c2F)N2C[C@H]4CC[C@H](N4)[C@H]2CCO3)c1C(F)(F)F [Example 37, 3-((6aR,7S,10R)-1-fluoro-13-((S)-1-((S)-1-methylpyrrolidin-2-yl)ethoxy)-5,6,6a,7,8,9,10,11-octahydro-4-oxa-3,11a,12,14,15-pentaaza-7,10-methanocyclohepta[4,5]cycloocta [1,2,3-de]naphthalen-2-yl)-5-methyl-4-(trifluoromethyl)aniline] | 3 to 1000 | < 0.3 | – | –
7 | Cc1cc(N)cc(-c2nc3c4c(nc(OCC5(CN6CC7CC6CC7(F)F)CC5)nc4c2F)N2C[C@H]4CC[C@H](N4)[C@H]2CCO3)c1C(F)(F)F [Example 174, 3-((6aR,7S,10R)-13-((1-((5,5-difluoro-2-azabicyclo[2.2.1]heptan-2-yl)methyl)cyclopropyl)methoxy)-1-fluoro-5,6,6a,7,8,9,10,11-octahydro-4-oxa-3,11a,12,14,15-pentaaza-7,10-methanocyclohepta[4,5]cycloocta[1,2,3-de]naphthalen-2-yl)-5-methyl-4-(trifluoromethyl)aniline] | 3 to 1000 | < 0.3 | – | –
8 | Cc1cc(N)cc(-c2nc3c4c(nc(OCC5(CN6CCCC(C(F)(F)F)C6)CC5)nc4c2F)N2C[C@H]4CC[C@H](N4)[C@H]2CCO3)c1C(F)(F)F (stereo partly drawn) [Example 118, 3-((6aR,7S,10R)-1-fluoro-13-((1-((3-(trifluoromethyl)piperidin-1-yl)methyl)cyclopropyl)methoxy)-5,6,6a,7,8,9,10,11-octahydro-4-oxa-3,11a,12,14,15-pentaaza-7,10-methanocyclohepta [4,5]cycloocta [1,2,3-de]naphthalen-2-yl)-5-methyl-4-(trifluoromethyl)aniline] | 3 to 1000 | < 0.3 | – | –
9 | Cc1cc(N)cc(-c2nc3c4c(nc(OCC5(CN6C[C@H]7C[C@H]7[C@@H]6CO)CC5)nc4c2F)N2C[C@H]4CC[C@H](N4)[C@H]2CCO3)c1C(F)(F)F [Example 96, ((1R,2R,5S)-3-((1-((((6aR,7S,10R)-2-(5-amino-3-methyl-2-(trifluoromethyl)phenyl)-1-fluoro-5,6,6a,7,8,9,10,11-octahydro-4-oxa-3,11a,12,14,15-pentaaza-7,10-methanocyclohepta [4,5]cycloocta[1,2,3-de]naphthalen-13-yl)oxy)methyl)cyclopropyl)methyl)-3-azabicyclo [3.1.0]hexan-2-yl) methanol] | 3 to 1000 | < 0.3 | – | –
10 | Cc1cc(N)cc(-c2nc3c4c(nc(OCC5(CN6CCC7(CCOCC7)C6)CC5)nc4c2F)N2C[C@H]4CC[C@H](N4)[C@H]2CCO3)c1C(F)(F)F [Example 101, 3-((6aR,7S,10R)-13-((1-((8-oxa-2-azaspiro[4.5]decan-2-yl)methyl)cyclopropyl)methoxy)-1-fluoro-5,6,6a, 7,8,9,10,11-octahydro-4-oxa-3,11a,12,14,15-pentaaza[7,10]methanocyclohepta [4,5]cycloocta[1,2,3-de]naphthalen-2-yl)-5-methyl-4-(trifluoromethyl) aniline formate] | – | – | 3 to 1000 | < 0.3
11 | Cc1cc(N)cc(-c2nc3c4c(nc(N5CC(C)(N(C)C)C5)nc4c2F)N2C[C@H]4CC[C@H](N4)[C@H]2CCO3)c1C(F)(F)F [Example 30] | 3 to 1000 | 0.3 to 3 | – | –
12 | Cc1nc(N)cc(-c2nc3c4c(nc(OC[C@]5(CN(C)C)CC5(F)F)nc4c2F)N2C[C@H]4CC[C@H](N4)[C@H]2CCO3)c1C(F)(F)F [Example 48, 4-((6aR,7S,10R)-13-(((R)-1-((dimethylamino)methyl)-2,2-difluorocyclopropyl)methoxy)-1-fluoro-5,6,6a,7,8,9,10,11-octahydro-4-oxa-3,11a,12,14,15-pentaaza-7,10-methanocyclohepta[4,5]cycloocta [1,2,3-de]naphthalen-2-yl)-6-methyl-5-(trifluoromethyl)pyridin-2-amine] | 3 to 1000 | < 0.3 | – | –
13 | Cc1cc(N)cc(-c2nc3c4c(nc(OCC5(CN6CCC(C(F)(F)F)C6)CC5)nc4c2F)N2C[C@H]4CC[C@H](N4)[C@H]2CCO3)c1C(F)(F)F (stereo partly drawn) [Example 91, 3-((6aR,7S,10R)-1-fluoro-13-((1-((3-(trifluoromethyl)pyrrolidin-1-yl)methyl)cyclopropyl)methoxy)-5,6,6a,7,8,9,10,11-octahydro-4-oxa-3,11a,12,14,15-pentaaza-7,10-methanocyclohepta [4,5]cycloocta [1,2,3-de]naphthalen-2-yl)-5-methyl-4-(trifluoromethyl)aniline] | 3 to 1000 | < 0.3 | – | –
14 | COC[C@@H]1[C@@H]2C[C@@H]2CN1CC1(COc2nc3c4c(nc(-c5cc(N)cc(C)c5C(F)(F)F)c(F)c4n2)OCC[C@@H]2[C@@H]4CC[C@H](CN32)N4)CC1 [Example 180, 3-((6aR,7S,10R)-1-fluoro-13-((1-(((1R,2S,5S)-2-(methoxymethyl)-3-azabicyclo[3.1.0]hexan-3-yl)methyl)cyclopropyl)methoxy)-5,6,6a,7,8,9,10,11-octahydro-4-oxa-3,11a,12,14,15-pentaaza-7,10-methanocyclohepta[4,5]cycloocta[1,2,3-de]naphthalen-2-yl)-5-methyl-4-(trifluoromethyl)aniline] | 3 to 1000 | 0.3 to 3 | – | –
15 | CCN1C[C@H](F)C[C@H]1[C@H](C)Oc1nc2c3c(nc(-c4cc(N)cc(C)c4C(F)(F)F)c(F)c3n1)OCC[C@@H]1[C@@H]3CC[C@H](CN21)N3 [Example 222, 3-((6aR,7S,10R)-13-((S)-1-((2S,4R)-1-ethyl-4-fluoropyrrolidin-2-yl)ethoxy)-1-fluoro-5,6,6a,7,8,9,10,11-octahydro-4-oxa-3,11a,12,14,15-pentaaza-7,10-methanocyclohepta[4,5]cycloocta[1,2,3-de]naphthalen-2-yl)-5-methyl-4-(trifluoromethyl)aniline] | 3 to 1000 | < 0.3 | – | –
16 | Cc1cc(N)cc(-c2nc3c4c(nc(OCC5(CN6CC7(CCOCC7)C6)CC5)nc4c2F)N2C[C@H]4CC[C@H](N4)[C@H]2CCO3)c1C(F)(F)F [Example 85, 3-((6aR,7S,10R)-13-((1-((7-oxa-2-azaspiro[3.5]nonan-2-yl)methyl)cyclopropyl)methoxy)-1-fluoro-5,6,6a, 7,8,9,10,11-octahydro-4-oxa-3,11a,12,14,15-pentaaza[7,10]methanocyclohepta [4,5]cycloocta [1,2,3-de]naphthalen-2-yl)-5-methyl-4-(trifluoromethyl)aniline] | 0.3 to 3 | < 0.3 | – | –
